Common to all, as to type: biochemical
One experiment concerns the target T1, JAK3 (Homo sapiens, UniProt P52333).
T1 sequence (P52333 1-1124): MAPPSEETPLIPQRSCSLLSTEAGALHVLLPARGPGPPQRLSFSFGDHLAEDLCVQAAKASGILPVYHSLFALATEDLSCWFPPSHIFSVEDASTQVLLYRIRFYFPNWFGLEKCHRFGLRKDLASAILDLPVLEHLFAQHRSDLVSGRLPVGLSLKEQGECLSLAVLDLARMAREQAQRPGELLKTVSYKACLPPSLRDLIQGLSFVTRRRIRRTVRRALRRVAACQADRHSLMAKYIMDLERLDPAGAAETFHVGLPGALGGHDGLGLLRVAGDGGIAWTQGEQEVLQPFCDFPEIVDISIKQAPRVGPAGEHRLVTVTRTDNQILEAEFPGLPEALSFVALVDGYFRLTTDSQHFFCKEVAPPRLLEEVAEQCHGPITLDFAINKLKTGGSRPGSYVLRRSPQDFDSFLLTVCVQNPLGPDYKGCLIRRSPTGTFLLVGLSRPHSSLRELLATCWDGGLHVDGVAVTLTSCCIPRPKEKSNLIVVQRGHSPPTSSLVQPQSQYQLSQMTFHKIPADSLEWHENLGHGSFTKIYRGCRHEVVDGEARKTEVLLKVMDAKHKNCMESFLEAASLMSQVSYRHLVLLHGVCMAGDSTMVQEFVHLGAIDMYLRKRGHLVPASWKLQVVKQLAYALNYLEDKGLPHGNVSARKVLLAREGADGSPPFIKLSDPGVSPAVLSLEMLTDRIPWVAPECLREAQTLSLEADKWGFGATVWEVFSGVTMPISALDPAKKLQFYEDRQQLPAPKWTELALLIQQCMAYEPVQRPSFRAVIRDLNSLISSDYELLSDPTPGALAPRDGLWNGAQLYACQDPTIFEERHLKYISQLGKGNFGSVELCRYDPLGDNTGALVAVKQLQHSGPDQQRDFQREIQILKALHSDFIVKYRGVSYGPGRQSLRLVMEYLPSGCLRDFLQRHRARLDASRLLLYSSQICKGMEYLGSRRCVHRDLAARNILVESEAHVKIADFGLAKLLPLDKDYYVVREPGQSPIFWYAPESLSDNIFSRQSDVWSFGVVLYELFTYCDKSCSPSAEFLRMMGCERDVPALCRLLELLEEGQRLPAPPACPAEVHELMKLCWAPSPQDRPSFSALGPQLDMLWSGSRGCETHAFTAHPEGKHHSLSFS
The experiment is described as follows: Inhibition of a panel of kinases, in vitro HotSpot kinase assay: JAK3. As for the experimental part:
(§1) The degree of inhibition of a panel of kinases is determined using the in vitro HotSpot kinase assay (purified enzymes, ^33P-ATP, an appropriate substrate and 1 uM ATP).

Another experiment concerns the target Lck (Homo sapiens, UniProt P06239). The experiment is described as follows: Lck kinase activity, TR-FRET assay. To be noted: read-out: LCK (IC50). Put shortly: (§2)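 Enzyme (Btk 0.5 nM; Lck 6 nM) reacted 1 h with inhibitor, ATP at Km and biotin-peptide substrate in pH 7.4 buffer, 10% DMSO. Phosphopeptide detected by Eu-p-Tyr100 antibody plus streptavidin-APC (665/615 nm). IC50 calculated from fitted Ki(app) via ATP/Km correction plus half total enzyme.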

Another experiment has as its target EGFR (Homo sapiens, UniProt P00533). The experiment is described as follows: Inhibition of a panel of kinases, in vitro HotSpot kinase assay: EGFR. As to the method: as §1
The target of the next experiment is Btk (Homo sapiens, UniProt Q06187). The experiment is described as follows: Btk kinase activity, TR-FRET assay. To be noted: read-out: Btk (IC50). Put shortly: as §2
Background: In TR-FRET formats the signal depends on donor and acceptor labels being close together.

Molecules are shown by their SMILES. Some results are limits rather than exact numbers.

EGFR, sequence (P00533 25-1210): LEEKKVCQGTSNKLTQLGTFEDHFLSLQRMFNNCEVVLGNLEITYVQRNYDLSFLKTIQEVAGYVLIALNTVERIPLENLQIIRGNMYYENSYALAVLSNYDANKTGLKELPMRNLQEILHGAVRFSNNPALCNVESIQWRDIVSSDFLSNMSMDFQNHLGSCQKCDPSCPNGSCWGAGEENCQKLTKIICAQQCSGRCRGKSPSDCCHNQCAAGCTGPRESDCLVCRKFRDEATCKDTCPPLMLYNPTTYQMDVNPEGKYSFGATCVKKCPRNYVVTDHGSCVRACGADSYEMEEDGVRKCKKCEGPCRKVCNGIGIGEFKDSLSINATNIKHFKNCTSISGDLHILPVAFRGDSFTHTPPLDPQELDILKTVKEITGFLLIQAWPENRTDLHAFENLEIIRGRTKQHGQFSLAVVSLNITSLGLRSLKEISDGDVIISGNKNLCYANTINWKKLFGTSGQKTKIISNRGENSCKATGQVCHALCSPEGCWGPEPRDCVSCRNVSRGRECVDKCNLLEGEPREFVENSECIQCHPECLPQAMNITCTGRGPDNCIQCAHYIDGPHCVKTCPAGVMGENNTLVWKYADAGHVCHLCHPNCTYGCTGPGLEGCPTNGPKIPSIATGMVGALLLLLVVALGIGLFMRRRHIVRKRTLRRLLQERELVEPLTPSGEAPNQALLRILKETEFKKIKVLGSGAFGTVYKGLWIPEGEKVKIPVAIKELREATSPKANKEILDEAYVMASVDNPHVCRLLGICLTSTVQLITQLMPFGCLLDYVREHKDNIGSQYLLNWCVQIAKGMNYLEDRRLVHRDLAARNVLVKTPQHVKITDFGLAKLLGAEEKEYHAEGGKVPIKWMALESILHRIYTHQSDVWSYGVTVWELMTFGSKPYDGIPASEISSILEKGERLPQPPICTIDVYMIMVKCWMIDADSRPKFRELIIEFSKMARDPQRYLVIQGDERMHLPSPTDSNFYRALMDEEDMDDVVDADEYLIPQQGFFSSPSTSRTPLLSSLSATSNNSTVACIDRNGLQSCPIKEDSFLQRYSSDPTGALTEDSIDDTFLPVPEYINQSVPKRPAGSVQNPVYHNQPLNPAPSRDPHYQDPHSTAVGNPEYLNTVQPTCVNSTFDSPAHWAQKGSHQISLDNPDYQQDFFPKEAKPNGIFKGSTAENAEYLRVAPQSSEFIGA
Lck, sequence (P06239 whole entry, species assumed): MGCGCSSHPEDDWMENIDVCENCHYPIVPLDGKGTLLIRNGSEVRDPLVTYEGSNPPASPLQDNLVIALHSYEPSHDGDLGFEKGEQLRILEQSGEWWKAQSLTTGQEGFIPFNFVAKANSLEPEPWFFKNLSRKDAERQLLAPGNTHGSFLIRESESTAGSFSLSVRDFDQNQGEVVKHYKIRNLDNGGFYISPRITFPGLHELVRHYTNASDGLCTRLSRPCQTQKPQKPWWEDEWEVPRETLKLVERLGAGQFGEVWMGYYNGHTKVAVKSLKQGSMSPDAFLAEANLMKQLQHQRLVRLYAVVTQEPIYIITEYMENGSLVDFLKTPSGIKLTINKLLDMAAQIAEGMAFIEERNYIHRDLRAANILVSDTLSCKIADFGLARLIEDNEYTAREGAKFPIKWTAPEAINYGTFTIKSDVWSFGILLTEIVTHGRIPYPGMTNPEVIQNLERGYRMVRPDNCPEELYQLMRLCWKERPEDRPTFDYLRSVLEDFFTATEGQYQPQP
Btk, sequence (Q06187 whole entry): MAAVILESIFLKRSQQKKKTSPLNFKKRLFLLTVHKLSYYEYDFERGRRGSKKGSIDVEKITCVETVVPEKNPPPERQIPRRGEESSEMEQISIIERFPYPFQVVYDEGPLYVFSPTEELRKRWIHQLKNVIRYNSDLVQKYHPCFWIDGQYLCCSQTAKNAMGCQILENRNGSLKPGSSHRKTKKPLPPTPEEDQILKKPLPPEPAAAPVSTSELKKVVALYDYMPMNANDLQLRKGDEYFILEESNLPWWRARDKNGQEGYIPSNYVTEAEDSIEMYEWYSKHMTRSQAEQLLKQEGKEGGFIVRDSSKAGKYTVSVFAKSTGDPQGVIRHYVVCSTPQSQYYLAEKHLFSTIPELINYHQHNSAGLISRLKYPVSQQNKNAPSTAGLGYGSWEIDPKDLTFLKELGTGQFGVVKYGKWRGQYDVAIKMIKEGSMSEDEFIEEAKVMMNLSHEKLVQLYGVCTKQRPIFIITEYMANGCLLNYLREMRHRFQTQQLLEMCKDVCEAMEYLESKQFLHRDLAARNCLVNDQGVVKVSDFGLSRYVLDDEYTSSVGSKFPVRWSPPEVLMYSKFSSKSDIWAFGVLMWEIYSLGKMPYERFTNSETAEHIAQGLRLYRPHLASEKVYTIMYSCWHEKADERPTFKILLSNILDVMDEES

As usually defined, the IC50 is the concentration that inhibits the measured activity by half. For the compound `C=CC(=O)N1CC[C@@H](Nc2n[nH]c3nccc(Oc4cccc(C(=O)Nc5ccc(C(C)C)c(C)c5)c4)c23)C1` [compound 122, N-[3-methyl-4-(propan-2-yl)phenyl]-3-[(3-{[(3R)-1-(prop-2-enoyl)pyrrolidin-3-yl]amino}-1H-pyrazolo[3,4-b]pyridin-4-yl)oxy]benzamide], the IC50 at JAK3 is below 100 nM; on Lck, below 100 nM; on EGFR it was 100 to 1000 nM; on Btk it was below 100 nM.
On to `Cc1ccnc(NC(=O)c2ccc(Oc3ccnc4[nH]nc(N[C@@H]5CCCN(C(=O)C6(C)CC6)C5)c34)cc2)c1` [compound 120, 4-[(3-{[(3R)-1-(1-methylcyclopropanecarbonyl)piperidin-3-yl]amino}-1H-pyrazolo[3,4-b]pyridin-4-yl)oxy]-N-(4-methylpyridin-2-yl)benzamide], for which the half-inhibitory concentration (IC50) against JAK3 is above 10000 nM; at Lck, 100 to 1000 nM; at EGFR it was above 10000 nM; at Btk, below 100 nM.
As to `CCNC(=O)N[C@@H]1CCCN(c2n[nH]c3nccc(Oc4ccc(C(=O)Nc5cc(C(F)(F)F)ccn5)cc4)c23)C1` [compound 228, 4-({3-[(3R)-3-[(ethylcarbamoyl)amino]piperidin-1-yl]-1H-pyrazolo[3,4-b]pyridin-4-yl}oxy)-N-[4-(trifluoromethyl)pyridin-2-yl]benzamide], the IC50 is above 10000 nM at JAK3, 100 to 1000 nM at Lck, 1000 to 10000 nM at EGFR and below 100 nM on Btk.
For `C=CC(=O)N1CCC[C@@H](Nc2n[nH]c3nccc(Oc4ccc(-c5nc6ccccc6s5)cc4)c23)C1` [compound 192] the same measures were 100 to 1000 nM, 100 to 1000 nM, 100 to 1000 nM and below 100 nM.
For `C=CC(=O)N1CC[C@@H](Nc2n[nH]c3nccc(Oc4ccc(Oc5ccccc5)cc4)c23)C1` [compound 4, 1-[(3R)-3-{[4-(4-phenoxyphenoxy)-1H-pyrazolo[3,4-b]pyridin-3-yl]amino}pyrrolidin-1-yl]prop-2-en-1-one], the half-inhibitory concentration (IC50) against JAK3 was 100 to 1000 nM; at Lck, below 100 nM; against EGFR it was below 100 nM; at Btk, below 100 nM.
With `CC(=O)N1CC[C@@H](Nc2n[nH]c3nccc(Oc4cccc(C(=O)Nc5ccc(C(C)C)c(C)c5)c4)c23)C1` [compound 123, 3-[(3-{[(3R)-1-acetylpyrrolidin-3-yl]amino}-1H-pyrazolo[3,4-b]pyridin-4-yl)oxy]-N-[3-methyl-4-(propan-2-yl)phenyl]benzamide], the IC50 against JAK3 was 1000 to 10000 nM; at Lck, below 100 nM; on EGFR, 1000 to 10000 nM; on Btk it was 100 to 1000 nM.
For the compound `Cc1ccnc(NC(=O)c2ccc(Oc3ccnc4[nH]nc(N[C@@H]5CCN(C#N)C5)c34)cc2)c1` [compound 275, (R)-4-(3-(1-cyanopyrrolidin-3-ylamino)-1H-pyrazolo[3,4-b]pyridin-4-yloxy)-N-(4-methylpyridin-2-yl)benzamide], the IC50 at JAK3 is above 10000 nM; at Lck, 100 to 1000 nM; against EGFR it was 1000 to 10000 nM; at Btk, below 100 nM.
For `Cc1ccnc(NC(=O)c2ccc(Oc3ccnc4[nH]nc(N[C@@H]5CCCN(C(=O)C6(C)CCN(C)CC6)C5)c34)cc2)c1` [compound 283, (R)-4-(3-(1-(1,4-dimethylpiperidine-4-carbonyl)piperidin-3-ylamino)-1H-pyrazolo[3,4-b]pyridin-4-yloxy)-N-(4-methylpyridin-2-yl)benzamide] the same measures were above 10000 nM, 100 to 1000 nM, above 10000 nM and below 100 nM.
The matching figures for `Cc1ccnc(NC(=O)c2ccc(Oc3ccnc4[nH]nc(N[C@@H]5CCCN(C(=O)C#CCO)C5)c34)cc2)c1` [compound 282, (R)-4-(3-(1-(4-hydroxybut-2-ynoyl)piperidin-3-ylamino)-1H-pyrazolo[3,4-b]pyridin-4-yloxy)-N-(4-methylpyridin-2-yl)benzamide]: 100 to 1000 nM, 100 to 1000 nM, 100 to 1000 nM and below 100 nM.
For `CCNC(=O)N1CCC[C@@H](Nc2n[nH]c3nccc(Oc4ccc(C(=O)Nc5ccccn5)cc4)c23)C1` [compound 229, (3R)-N-ethyl-3-[(4-{4-[(pyridin-2-yl)carbamoyl]phenoxy}-1H-pyrazolo[3,4-b]pyridin-3-yl)amino]piperidine-1-carboxamide] the same measures were above 10000 nM, above 10000 nM, 1000 to 10000 nM and below 100 nM.
With `C=CC(=O)N1CCC[C@@H](Nc2n[nH]c3nccc(Oc4cccc(C(=O)Nc5ncc(C)s5)c4)c23)C1` [compound 149], the IC50 at JAK3 is below 100 nM; on Lck it was 1000 to 10000 nM; against EGFR it was below 100 nM; at Btk it was below 100 nM.
In the case of `C=CC(=O)N1CCCC(Nc2n[nH]c3nccc(Oc4ccc(-c5ccc(C(F)(F)F)cn5)cc4)c23)C1` (stereo in doubt) [compound 196, 1-[(3S)-3-[(4-{4-[5-(trifluoromethyl)pyridin-2-yl]phenoxy}-1H-pyrazolo[3,4-b]pyridin-3-yl)amino]piperidin-1-yl]prop-2-en-1-one], the IC50 is 100 to 1000 nM on JAK3, above 10000 nM at Lck, 1000 to 10000 nM on EGFR and 100 to 1000 nM at Btk.
In the case of `CN(C)C/C=C/C(=O)N1CC[C@@H](Nc2n[nH]c3nccc(Oc4ccc(Oc5ccccc5)cc4)c23)C1` [compound 5, (2E)-4-(dimethylamino)-1-[(3R)-3-{[4-(4-phenoxyphenoxy)-1H-pyrazolo[3,4-b]pyridin-3-yl]amino}pyrrolidin-1-yl]but-2-en-1-one], the IC50 at JAK3 is above 10000 nM; at Lck, below 100 nM; at EGFR it was below 100 nM; on Btk, below 100 nM.
Consider `CC#CC(=O)N1CCC[C@@H](Nc2n[nH]c3nccc(Oc4ccc(C(=O)Nc5ncc(C)s5)cc4)c23)C1` [compound 141], for which the IC50 against JAK3 was 1000 to 10000 nM; at Lck, 1000 to 10000 nM; on EGFR, above 10000 nM; at Btk it was below 100 nM.
Take `CCNC(=O)N1CC[C@@H](Nc2n[nH]c3nccc(Oc4ccc(C(=O)Nc5cc(C(F)(F)F)ccn5)cc4)c23)C1` [compound 188]: the 50% inhibitory concentration (IC50) against JAK3 is above 10000 nM; on Lck, 100 to 1000 nM; at EGFR it was 1000 to 10000 nM; at Btk, below 100 nM.
The matching figures for `Cc1ccnc(NC(=O)c2ccc(Oc3ccnc4[nH]nc(N[C@@H]5CCCN(C(=O)[C@@H]6CCOC6)C5)c34)cc2)c1` [compound 115, N-(4-methylpyridin-2-yl)-4-[(3-{[(3R)-1-[(3R)-oxolane-3-carbonyl]piperidin-3-yl]amino}-1H-pyrazolo[3,4-b]pyridin-4-yl)oxy]benzamide]: above 10000 nM, 100 to 1000 nM, above 10000 nM and below 100 nM.
For `COCC1(C(=O)N2CCC[C@@H](Nc3n[nH]c4nccc(Oc5ccc(C(=O)Nc6cc(C)ccn6)cc5)c34)C2)CCC1` [compound 99, 4-[(3-{[(3R)-1-[1-(methoxymethyl)cyclobutanecarbonyl]piperidin-3-yl]amino}-1H-pyrazolo[3,4-b]pyridin-4-yl)oxy]-N-(4-methylpyridin-2-yl)benzamide] the same measures were above 10000 nM, 100 to 1000 nM, above 10000 nM and below 100 nM.
For `Cc1ccnc(NC(=O)c2ccc(Oc3ccnc4[nH]nc(N[C@@H]5CCCN(C(=O)C6(C)CCNCC6)C5)c34)cc2)c1` [compound 104, 4-[(3-{[(3R)-1-(4-methylpiperidine-4-carbonyl)piperidin-3-yl]amino}-1H-pyrazolo[3,4-b]pyridin-4-yl)oxy]-N-(4-methylpyridin-2-yl)benzamide] the same measures were above 10000 nM, 100 to 1000 nM, 1000 to 10000 nM and below 100 nM.
